Test results as given in the METLIN SMRT retention time set (Domingo-Almenara et al. 2019).

Assay: gradient 5% acetonitrile 3 min, to 50% in 2 min, to 85% in 15 min, held 3 min, 100 µL/min
Details: column: Zorbax Extend-C18 2.1 x 50 mm; eluents: water / acetonitrile, 0.1% formic acid
Procedure, shortened: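 Standards, all pure, were combined into mixtures of ~100 molecules and run at 100 μL/min on a Zorbax Extend-C18 column (2.1 × 50 mm, 1.8 μm) with water and acetonitrile, each containing 0.1% formic acid. A coupled quadrupole time-of-flight mass spectrometer operated in positive and negative ionization mode. Retention time values come from computationally picked adduct peaks, each inspected manually.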

Compound	RP-LC retention time [s]
CCc1ccc(S(=O)(=O)Nc2ccc(-c3cn4cccc(C)c4n3)cc2)cc1	667
Cn1nc(-c2nnc(-c3ccccc3Cl)o2)c2c1CCN(C(=O)c1ccc(C(F)(F)F)cc1)C2	943
CCCCN1CCN(C(=O)c2cc(-c3ccncc3)cn2Cc2ccccc2C)CC1	576
Cc1c(C(=O)N2CCOCC2)sc2nc(-c3ccccc3)c(NC(C)(C)C)n12	778
O=C(Cc1ccsc1)N1CCCC1c1nc(-c2ccc(F)cc2F)no1 (stereo not given)	922
Cc1cccc(NS(=O)(=O)c2c(C)sc(C)c2-c2n[nH]c(C)c2C)c1	1040
CC(Cc1ccco1)NC(=O)c1cc(S(=O)(=O)N2CCCCC2)ccc1Cl (stereo not given)	967
Cc1ccc(Oc2nccnc2N2CCCC(C(=O)Nc3ccc(Br)c(C)c3)C2)cc1 (stereo not given)	1290
COc1c(C(=O)Nc2ccc3c(c2)OCO3)sc2ccc(Cl)cc12	1180
O=C(c1csc(S(=O)(=O)N2CCC(C(=O)N3CCOCC3)CC2)c1)N1CCCCCC1	718
O=C(Nc1ccc(Br)cc1F)C1CCCN(c2nc3ccccc3nc2C(F)(F)F)C1 (stereo not given)	1360
CC(=O)N1CCCn2nc(-c3cccc(F)c3)cc2C1	722
O=C(c1ccc2cc[nH]c2c1)N1CCC(c2nc(C3CC3)n[nH]2)CC1	546
O=C(Cn1cnc(-c2nc(-c3ccccc3)cs2)c1)Nc1ccccc1	819
O=C(Nc1ccc2c(c1)OCCO2)C1CCN(c2cnc3nccnc3c2)CC1	666
O=C(Cc1ccsc1)N1CCC(Nc2ncnc3c2CCC3)C1 (stereo not given)	588
COC(=O)c1ccc(C2CC(=O)NC3=C2C(=O)CCC3)cc1 (stereo not given)	653
COc1ccc(Cc2nc(-c3cccc(-c4ccn[nH]4)c3)no2)c(Cl)c1	1000
Cc1cccc(C)c1NC1=NCCCS1	635
COc1ccc(NS(=O)(=O)c2cc3n(c2)CCCNC3=O)cc1	615
CCNC(=O)N1CC(c2nc(-c3cccnc3)no2)C2(CCOCC2)C1 (stereo not given)	597
CCCOc1ccccc1Nc1nc(C(=O)OCC)nc2ccccc12	1040
CSc1cccc(NC(=O)Cn2c(=O)c(CCC(=O)NCC(C)C)nc3ccccc32)c1	846

Compound	RP-LC retention time [s]
Cc1ccc(CNC(=O)c2ccc(-c3ccsc3)nc2)cc1	905
COc1ccc(-c2cn3c(CC(=O)Nc4ccccc4OC)csc3n2)cc1	748
CCCn1ccc2oc(C)c(C(=O)N3CCC(N4CCCCC4)CC3)c2c1=O	590
O=C(c1noc2c1CSc1ccccc1-2)N1CCN(c2ccccn2)CC1	719
O=c1[nH]nc(-c2cc(-c3ccccc3)nc3ccccc23)o1	985
O=S(=O)(Nc1ccc(Cn2cncn2)cc1)c1ccc(F)cc1F	714
COc1ccc(-c2nc3sc(C(=O)N(C)C)c(C)n3c2NC(C)(C)C)cc1	742
Cc1cc(=O)n(CC(=O)Nc2ccc(F)c(F)c2)c(N)n1	598
CC(NC(=O)C1CCN(S(=O)(=O)c2ccc(Cl)cc2)CC1)C(=O)N1CCCc2ccccc21 (stereo not given)	945
CCN(C)C(=O)C1CN(C(=O)c2cccs2)CC1c1cccc(C(F)(F)F)c1 (stereo not given)	823
Cn1nc(C(F)(F)F)cc1C(=O)N1CCCC1c1ccccc1Cl (stereo not given)	1030
Cc1ccc(-c2cnn3c(N4CCN(c5cccc(C)n5)CC4)cc(C)nc23)cc1	776
COc1ccc(S(=O)(=O)N2CCCC(C(=O)NCCCOC(C)C)C2)cc1C (stereo not given)	877
O=C(c1ccn[nH]1)N1CC(F)(F)C[C@H]1c1nc(C2CC2)no1	712
O=C(C1CCCCC1)N1CCCC1c1nc2ccccc2s1 (stereo not given)	966
CCc1noc(NC(C)=O)c1-c1ccc(C)c(S(=O)(=O)Nc2cccc(F)c2)c1	822
O=C(NCc1ccccc1)NCC1Cn2cccc2C(=O)N1Cc1ccccc1 (stereo not given)	782
COc1cc2nc(C(=O)N3CCCCC3)cc(Nc3ccc(F)c(Cl)c3)c2cc1OC	735
CCCNC(=O)C1=Cc2cc(Br)ccc2OC=C1	944
CC(=O)Nc1ccccc1SC(CC(=O)c1ccco1)c1ccc2c(c1)OCO2 (stereo not given)	858
Cc1[nH]c(C(=O)N2CCC(CC(=O)NCc3ccc4c(c3)OCO4)CC2)c(C)c1C(=O)OC(C)C	797
Cc1ccc2nc(NC3=NCN(Cc4cccnc4)CN3)nc(C)c2c1	587
CCOc1ccc(C2c3c(oc4ccc(C)cc4c3=O)C(=O)N2CCCN2CCOCC2)cc1 (stereo not given)	812

Compound	RP-LC retention time [s]
COc1ccc(NC(=O)Cn2c(C)cc(-c3nnc(C)o3)c2C)cc1	732
Cc1nn(-c2ccccc2)c(C)c1/C=C1\Oc2cc(O)ccc2C1=O	782
CCOC(=O)c1c(C)n(Cc2ccco2)c2ccc(O)cc12	854
COc1ncc(C(=O)NCc2ccc(F)c(Cl)c2)cn1	756
Cc1ccc(-c2csc(NC(=O)c3ccccc3Br)n2)c(C)c1	1150
C=CCNc1nc(-c2ccc([N+](=O)[O-])cc2)nc2ccccc12	786
Cc1ccc2c(c1)N(C)N=C(C(=O)N1CCOCC1)S2(=O)=O	669
CC(C)c1cccc(C(C)C)c1N1C(=O)c2ccc(O)cc2C1=O	1130
O=C(Cc1cccs1)N1CCCC(c2nncn2-c2ccccc2)C1 (stereo not given)	663
COc1ccc(CNC(=O)Cn2c(C)nc3onc(C)c3c2=O)cc1	711
O=C(Cn1ccn2nc(-c3ccc(F)cc3)c(CO)c2c1=O)N1CCc2ccccc21	857
O=C(CN1C(=O)CSc2ccc(C(=O)N3CCCCC3)cc21)NCCC1=CCCCC1	870
CSc1ccc(-c2nc3ccc(C)cn3c2Nc2ccc(Cl)cc2)cc1	693
CNC(=O)c1cc[nH]c1C1CCCN(C(=O)c2cscn2)C1 (stereo not given)	591
Cc1ccc(-n2nnc(C(=O)O)c2-c2ccccn2)c(F)c1	697
Nc1nc(CN2CCN(c3ncccn3)CC2)nc(N2CCCCC2)n1	611
Cn1cccc1CN(C(=O)C1(c2ccccc2)CCOCC1)C1CC1	843
CS(=O)(=O)N1CC(C(=O)Nc2ccc3c(c2)OCCO3)C2(CCCCC2)C1 (stereo not given)	847
Cn1cc(-c2nc(C(=O)Nc3ccc(C#N)cc3)cs2)c2cccnc21	958
CCn1cnc(S(=O)(=O)N2CCC(C(=O)NCc3ccc(Cl)cc3)CC2)c1	729
CC(=O)Nc1c(C)nn(-c2ccccc2)c1N1CCC(C(=O)NCC2COCCO2)CC1 (stereo not given)	605
CCOc1ccc(-c2nc3ncccn3c2NC2CCCCC2)cc1	808
CN1C(=O)[C@H]2CN(Cc3cccc4[nH]ccc34)C[C@H]2C1=O	552

Compound	RP-LC retention time [s]
O=S(=O)(c1ccc2nncn2c1)N(Cc1ccccc1F)c1cc(F)cc(F)c1	874
CN(C(=O)Cc1ccccc1)[C@H](CN1CCCC1)c1ccccc1	726
CCOc1ccc(C(=O)N2C[C@H](c3nc(-c4ccncc4)no3)[C@@H](C)C2)cc1	838
COC(=O)c1ccc(-c2nc3cnccn3c2Nc2cc(OC)ccc2OC)cc1	870
CC1CCN(S(=O)(=O)c2ccc3nc(N4CCN(c5ccccn5)CC4)ccc3c2)CC1	691
Cc1ccc(C2Cn3cnc(C(=O)N4CCC(C(=O)NCCC5=CCCCC5)CC4)c3CO2)cc1 (stereo not given)	819
COc1cc(NC(=O)N2CCC(n3c(CC(C)C)nc4cccnc43)CC2)cc(OC)c1OC	662
COC(=O)c1c(-c2ccc(Cl)cc2)noc1NC(C)C	1090
COC(=O)c1c(C)[nH]c(C(=O)N2CCCC(C(=O)NCCCN3CCCC3)C2)c1C (stereo not given)	584
COc1ccc(Cn2nc3ccc(S(=O)(=O)N4CCOCC4)cn3c2=O)cc1F	811
COc1cc(Nc2c(C(=O)N3CCCCC3C)cnc3nc(C)ccc23)cc(OC)c1 (stereo not given)	649
Cc1cc(C)cc(NC(=O)c2csc(-c3cn(C)c4ncccc34)n2)c1	1050
Cc1nc(CSc2ncnc3sc(C)c(C)c23)cs1	988
COC(=O)CCN1C(=O)c2ccccc2C1=O	688
CNS(=O)(=O)c1cccc(-c2nnc(-c3ccc(C)cc3)o2)c1	856
CCS(=O)(=O)c1nc2ccc(NS(=O)(=O)c3ccc(OC)c(Cl)c3)cc2s1	907
CCc1ccc(-c2csc(Nc3ccc(F)cn3)n2)cc1	1190
C=CCn1c(C)c(CC(=O)NC2CCCC2)c(=O)n2nc(-c3ccccc3)nc12	684
O=C(c1n[nH]c2ccccc12)N1CCn2c(nnc2-c2ccccc2)C1	664
O=C(Nc1c(-c2ccccc2)nc2ccccn12)c1ccc(Cl)cc1Cl	677
Cn1cc(S(=O)(=O)N2CCC(C(=O)Nc3ccc(F)cc3)CC2)cc1C(=O)N1CCCC1	750
